In patent publication US6706663B2, “Herbicidal 3-heterocyclic substituted benzisothiazole and benzisoxazole compounds” (Wyeth, priority 2000, dated 2004):

Legend:
[1] = test system: CASOB (Cassia obtusifolia); test: Preemergence herbicidal evaluation; format: in vivo, L.; conditions: rated 4-5 weeks after treatment
Outline: (§1)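 Seeds planted in potting soil cups and sprayed preemergence with aqueous acetone compound solution. Greenhouse-grown; rated 4–5 weeks after treatment on a 0-9 visual scale (stand, vigor, malformation, size, chlorosis, appearance) versus control.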

[2] = test system: AMBEL (Ambrosia artemisifolia); test: Preemergence herbicidal evaluation; format: in vivo, L.; conditions: rated 4-5 weeks after treatment
Outline: as §1

[3] = test system: CHEAL (Chenopodium album); test: Preemergence herbicidal evaluation; format: in vivo, L.; conditions: rated 4-5 weeks after treatment
Outline: as §1

[4] = test system: ABUTH (Abutilon theophrasti); test: Preemergence herbicidal evaluation; format: in vivo, Medic.; conditions: rated 4-5 weeks after treatment
[5] = test system: CYPSE (Cyperus serotinus); test: Flooded paddy, preemergence weed control; format: in vivo, Rottb.; conditions: rated 3-4 weeks after treatment, 0-9 rating scale
Outline: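 Seeds or propagules were planted 0.5 cm deep in silt loam and flooded to 1.5–3 cm. Compounds in 50/50 v/v aqueous/acetone were pipetted into the flood water at about 0.0080 to 0.1250 kg/ha. After 3–4 weeks in the greenhouse, effect was rated visually on a 0–9 scale versus untreated control.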

[6] = test system: ECHCG (Echinochloa crus-galli); test: Postemergence herbicidal evaluation; format: in vivo, (L.) Beau; conditions: for ECHCG herbicidal rating: postemergence
Outline: (§2)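 Seedlings grown about two weeks in flats, sprayed, then kept under standard greenhouse care. Rated visually 4–5 weeks after treatment on a 0–9 scale (stand, vigour, malformation, size, chlorosis, overall appearance) relative to untreated control; repeat tests averaged.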

[7] = test system: TRZAWR (Wheat, Winter, cv Riband); test: Postemergence herbicidal evaluation; format: in vivo, Triticum aestivum; conditions: for TRZAWR herbicidal rating: postemergence
Outline: as §2

[8] = test system: ORYSAT (Rice, Tebonnet); test: Flooded paddy, post-transplant rice tolerance; format: in vivo, Oryza sativa, (L.) Tebonnet; conditions: flooded paddy, post-transplant rice, rated 3-4 weeks after treatment, 0-9 rating scale
Outline: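 Two ten-day-old Tebonnet rice seedlings transplanted into silt loam, then flooded with water held at 1.5–3 cm above soil; herbicide applied post-transplant. Plants kept in greenhouse and rated visually 0–9 versus untreated control for stand, vigor, malformation, size and chlorosis.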

[9] = test system: ECHORC (Echinochloa oryzoides); test: Flooded paddy, preemergence weed control; format: in vivo, Echinochloa oryzoides (Ard.) Fritsch.; conditions: rated 3-4 weeks after treatment, 0-9 rating scale
Outline: (§3)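 In this preemergence paddy assay, weed seeds or organs are sown at up to 0.5 cm in silt loam and covered by 1.5–3 cm of water for the full test period. After treatment the pots are kept in a greenhouse, and herbicidal effect is rated 0-9 visually against a control.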

[10] = test system: CYPIR (Cyperus iria); test: Flooded paddy, preemergence weed control; format: in vivo; conditions: rated 3-4 weeks after treatment, 0-9 rating scale
Outline: as §3

[11] = test system: GLXMAW (Soybean, Williams); test: Preemergence herbicidal evaluation; format: in vivo, Glycine max, (L.) Merr. cv Williams; conditions: rated 4-5 weeks after treatment
[12] = test system: SETVI (Setaria viridis); test: Postemergence herbicidal evaluation; format: in vivo, (L.) Beau; conditions: for SETVI herbicidal rating: postemergence
Outline: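 Postemergence foliar spray on two-week-old seedlings, dose equivalent to about 0.0040 to 1.000 kg/ha. Ratings use a 0-9 visual scale relative to control at four to five weeks.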

[13] = test system: SAGPY (Sagittaria pygmaea); test: Flooded paddy, preemergence weed control; format: in vivo, L.; conditions: rated 3-4 weeks after treatment, 0-9 rating scale
Outline: as §3

[14] = test system: ZEAMX (Corn, Field); test: Preemergence herbicidal evaluation; format: in vivo, Zea mays, L.; conditions: rated 4-5 weeks after treatment
[15] = test system: IPOHE (Ipomoea hederacea); test: Preemergence herbicidal evaluation; format: in vivo, (L.) Jacq.; conditions: rated 4-5 weeks after treatment
[16] = test system: MOOVA (Monochoria vaginalis); test: Flooded paddy, preemergence weed control; format: in vivo, Presl.; conditions: rated 3-4 weeks after treatment, 0-9 rating scale
Outline: as §3

## Cn1c(C(F)(F)F)cc(=O)n(-c2ccc3snc(C4OCCCS4)c3c2)c1=O (centres unmarked) [Compound 34, 1-methyl-3-[3-(1,3-oxathian-2-yl)-1,2-benzisothiazol-5-yl]-6-(trifluoromethyl)uracil]
[1]; Rate 0.0620 kg/ha
  CASOB preemergence herbicidal rating: 5.0
  Preemergence herbicidal rating CASOB: 2.5
[1]; Rate 0.1250 kg/ha
  CASOB preemergence herbicidal rating: 9.0
  Preemergence herbicidal rating CASOB: 3.0
[1]; Rate 0.2500 kg/ha
  CASOB preemergence herbicidal rating: 9.0
  Preemergence herbicidal rating CASOB: 4.5
[2]; Rate 0.0620 kg/ha
  AMBEL preemergence herbicidal rating: 9.0
  Preemergence herbicidal rating AMBEL: 9.0
[2]; Rate 0.1250 kg/ha
  AMBEL preemergence herbicidal rating: 9.0
  Preemergence herbicidal rating AMBEL: 9.0
[2]; Rate 0.2500 kg/ha
  AMBEL preemergence herbicidal rating: 9.0
  Preemergence herbicidal rating AMBEL: 9.0
[3]; Rate 0.0620 kg/ha
  CHEAL preemergence herbicidal rating: 9.0
  Preemergence herbicidal rating CHEAL: 9.0
[3]; Rate 0.1250 kg/ha
  CHEAL preemergence herbicidal rating: 9.0
  Preemergence herbicidal rating CHEAL: 9.0
[3]; Rate 0.2500 kg/ha
  CHEAL preemergence herbicidal rating: 9.0
  Preemergence herbicidal rating CHEAL: 9.0
[4]; Rate 0.0620 kg/ha
  ABUTH preemergence herbicidal rating: 9.0
  Preemergence herbicidal rating ABUTH: 9.0
[4]; Rate 0.1250 kg/ha
  ABUTH preemergence herbicidal rating: 9.0
  Preemergence herbicidal rating ABUTH: 9.0
[4]; Rate 0.2500 kg/ha
  ABUTH preemergence herbicidal rating: 9.0
  Preemergence herbicidal rating ABUTH: 9.0
[5]; rate 0.0620 kg/ha
  herbicidal rating, CYPSE: 9.0
[5]; rate 0.1250 kg/ha
  herbicidal rating, CYPSE: 9.0
[6]; rate 0.0320 kg/ha
  ECHCG herbicidal rating: 3.0
  Postemergence herbicidal rating, ECHCG: 4.0
[6]; rate 0.0620 kg/ha
  ECHCG herbicidal rating: 4.0
  Postemergence herbicidal rating, ECHCG: 6.0
[7]; rate 0.0320 kg/ha
  TRZAWR herbicidal rating: 4.0
  Postemergence herbicidal rating, TRZAWR: 5.5
[7]; rate 0.0620 kg/ha
  TRZAWR herbicidal rating: 6.5
  Postemergence herbicidal rating, TRZAWR: 5.5
[8]; rate 0.0080 kg/ha
  herbicidal rating, ORYSAT (rice tolerance): 3.0
[8]; rate 0.0080 kg/ha, listed as 81
  herbicidal rating, ORYSAT (rice tolerance): 5.0
[8]; rate 0.0320 kg/ha
  herbicidal rating, ORYSAT (rice tolerance): 6.7
[8]; rate 0.0620 kg/ha
  herbicidal rating, ORYSAT (rice tolerance): 8.5
[8]; rate 0.1250 kg/ha
  herbicidal rating, ORYSAT (rice tolerance): 9.0
[8]; rate 0.1250 kg/ha, listed as 81
  herbicidal rating, ORYSAT (rice tolerance): 8.0
[9]; rate 0.0320 kg/ha
  herbicidal rating, ECHORC: 9.0
[9]; rate 0.0620 kg/ha
  herbicidal rating, ECHORC: 8.0
[9]; rate 0.1250 kg/ha
  herbicidal rating, ECHORC: 9.0
[10]; rate 0.0320 kg/ha
  herbicidal rating, CYPIR: 9.0
[10]; rate 0.0620 kg/ha
  herbicidal rating, CYPIR: 7.0
[11]; Rate 0.0620 kg/ha
  GLXMAW preemergence herbicidal rating: 7.5
  Preemergence herbicidal rating GLXMAW: 6.5
[11]; Rate 0.1250 kg/ha
  GLXMAW preemergence herbicidal rating: 9.0
  Preemergence herbicidal rating GLXMAW: 7.0
[11]; Rate 0.2500 kg/ha
  GLXMAW preemergence herbicidal rating: 9.0
  Preemergence herbicidal rating GLXMAW: 7.0
[12]; rate 0.0320 kg/ha
  SETVI herbicidal rating: 9.0
  Postemergence herbicidal rating, SETVI: 6.0
[12]; rate 0.0620 kg/ha
  SETVI herbicidal rating: 9.0
  Postemergence herbicidal rating, SETVI: 8.0
[13]; rate 0.0080 kg/ha
  herbicidal rating, SAGPY: 0.0
[13]; rate 0.0320 kg/ha
  herbicidal rating, SAGPY: 4.7
[13]; rate 0.0620 kg/ha
  herbicidal rating, SAGPY: 3.5
[14]; Rate 0.0620 kg/ha
  ZEAMX preemergence herbicidal rating: 5.0
  Preemergence herbicidal rating ZEAMX: 4.5
[14]; Rate 0.1250 kg/ha
  ZEAMX preemergence herbicidal rating: 7.0
  Preemergence herbicidal rating ZEAMX: 6.0
[14]; Rate 0.2500 kg/ha
  ZEAMX preemergence herbicidal rating: 9.0
  Preemergence herbicidal rating ZEAMX: 6.5
[15]; Rate 0.0620 kg/ha
  IPOHE preemergence herbicidal rating: 9.0
  Preemergence herbicidal rating IPOHE: 6.0
[15]; Rate 0.1250 kg/ha
  IPOHE preemergence herbicidal rating: 9.0
  Preemergence herbicidal rating IPOHE: 6.0
[15]; Rate 0.2500 kg/ha
  IPOHE preemergence herbicidal rating: 9.0
  Preemergence herbicidal rating IPOHE: 9.0
[16]; rate 0.0320 kg/ha
  herbicidal rating, MOOVA: 9.0
[16]; rate 0.0620 kg/ha
  herbicidal rating, MOOVA: 9.0
[16]; rate 0.1250 kg/ha
  herbicidal rating, MOOVA: 9.0

## Cn1c(C(F)(F)F)cc(=O)n(-c2ccc3snc(C4OCC(C)(C)CO4)c3c2)c1=O [Compound 36, 3-[3(5,5-dimethyl-m-dioxan-2-yl)-1,2-benzisothiazol-5-yl]-1-methyl-6-(trifluoromethyl)uracil]
[1]; Rate 0.0620 kg/ha
  CASOB preemergence herbicidal rating: 5.0
[1]; Rate 0.1250 kg/ha
  CASOB preemergence herbicidal rating: 9.0
[1]; Rate 0.2500 kg/ha
  CASOB preemergence herbicidal rating: 9.0
[2]; Rate 0.0620 kg/ha
  AMBEL preemergence herbicidal rating: 9.0
[2]; Rate 0.1250 kg/ha
  AMBEL preemergence herbicidal rating: 9.0
[2]; Rate 0.2500 kg/ha
  AMBEL preemergence herbicidal rating: 9.0
[3]; Rate 0.0620 kg/ha
  CHEAL preemergence herbicidal rating: 9.0
[3]; Rate 0.1250 kg/ha
  CHEAL preemergence herbicidal rating: 9.0
[3]; Rate 0.2500 kg/ha
  CHEAL preemergence herbicidal rating: 9.0
[4]; Rate 0.0620 kg/ha
  ABUTH preemergence herbicidal rating: 9.0
[4]; Rate 0.1250 kg/ha
  ABUTH preemergence herbicidal rating: 9.0
[4]; Rate 0.2500 kg/ha
  ABUTH preemergence herbicidal rating: 9.0
[5]; rate 0.0320 kg/ha
  herbicidal rating, CYPSE: 9.0
[5]; rate 0.1250 kg/ha
  herbicidal rating, CYPSE: 9.0
[6]; rate 0.0320 kg/ha
  Postemergence herbicidal rating, ECHCG: 1.0
[6]; rate 0.0620 kg/ha
  Postemergence herbicidal rating, ECHCG: 3.0
[7]; rate 0.0320 kg/ha
  Postemergence herbicidal rating, TRZAWR: 4.0
[7]; rate 0.0620 kg/ha
  Postemergence herbicidal rating, TRZAWR: 4.5
[8]; rate 0.0080 kg/ha
  herbicidal rating, ORYSAT (rice tolerance): 5.0
[8]; rate 0.0320 kg/ha
  herbicidal rating, ORYSAT (rice tolerance): 7.5
[8]; rate 0.1250 kg/ha
  herbicidal rating, ORYSAT (rice tolerance): 9.0
[9]; rate 0.0080 kg/ha
  herbicidal rating, ECHORC: 5.0
[9]; rate 0.0320 kg/ha
  herbicidal rating, ECHORC: 8.5
[9]; rate 0.1250 kg/ha
  herbicidal rating, ECHORC: 9.0
[10]; rate 0.0080 kg/ha
  herbicidal rating, CYPIR: 0.0
[10]; rate 0.0320 kg/ha
  herbicidal rating, CYPIR: 9.0
[10]; rate 0.1250 kg/ha
  herbicidal rating, CYPIR: 9.0
[11]; Rate 0.0620 kg/ha
  GLXMAW preemergence herbicidal rating: 8.0
[11]; Rate 0.1250 kg/ha
  GLXMAW preemergence herbicidal rating: 9.0
[11]; Rate 0.2500 kg/ha
  GLXMAW preemergence herbicidal rating: 9.0
[12]; rate 0.0320 kg/ha
  Postemergence herbicidal rating, SETVI: 4.0
[12]; rate 0.0620 kg/ha
  Postemergence herbicidal rating, SETVI: 9.0
[13]; rate 0.0080 kg/ha
  herbicidal rating, SAGPY: 0.0
[13]; rate 0.0320 kg/ha
  herbicidal rating, SAGPY: 3.5
[13]; rate 0.1250 kg/ha
  herbicidal rating, SAGPY: 9.0
[14]; Rate 0.0620 kg/ha
  ZEAMX preemergence herbicidal rating: 8.0
[14]; Rate 0.1250 kg/ha
  ZEAMX preemergence herbicidal rating: 8.0
[14]; Rate 0.2500 kg/ha
  ZEAMX preemergence herbicidal rating: 9.0
[15]; Rate 0.0620 kg/ha
  IPOHE preemergence herbicidal rating: 3.5
[15]; Rate 0.1250 kg/ha
  IPOHE preemergence herbicidal rating: 6.5
[15]; Rate 0.2500 kg/ha
  IPOHE preemergence herbicidal rating: 9.0
[16]; rate 0.0080 kg/ha
  herbicidal rating, MOOVA: 9.0
[16]; rate 0.0320 kg/ha
  herbicidal rating, MOOVA: 9.0
